Results: ChEMBL document CHEMBL1201862, “PubChem BioAssay data set” (2004)
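Interpolation was linear, between the two tested concentrations surrounding the appropriate level; five concentrations were tested over 48 hours in 96-well plates. The concentration for 50% growth inhibition is given as GI50.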 Calls of active or inactive are those of the source. Rule as the data show it: active = GI50 up to about 1.1 µM and inactive = higher.

Key:
Experiment in all cases: growth of human tumour cells (NCI), 48 h
A498 = test system: A498
DMS-273 = test system: DMS-273
HOP-18 = test system: HOP-18
HOP-62 = test system: HOP-62
HT-29 = test system: HT-29
KM-20L2 = test system: KM-20L2
M19-MEL = test system: M19-MEL
NCI-H460 = test system: NCI-H460
NCI-H522 = test system: NCI-H522
NCI/ADR-RES = test system: NCI/ADR-RES
SF-268 = test system: SF-268
U-251 = test system: U-251
XF498 = test system: XF498
786-0 = test system: 786-0
BT-549 = test system: BT-549
DU-145 = test system: DU-145
MDA-MB-435 = test system: MDA-MB-435
PC-3 = test system: PC-3
SR = test system: SR
T47D = test system: T47D

For `O=C(CC1=NCCN1)c1ccccc1`, the GI50 (A498) was 62.8 µM (inactive), the GI50 (DMS-273) was > 750 µM (inactive) and the GI50 (HOP-18) was > 649 µM (inactive). For the same compound, the GI50 (HOP-62) was > 605 µM (inactive), the GI50 (HT-29) was > 750 µM (inactive) and the GI50 (KM-20L2) was > 750 µM (inactive). The GI50 (M19-MEL) was > 750 µM (inactive), the GI50 (NCI-H460) was > 511 µM (inactive) and the GI50 (NCI-H522) was > 750 µM (inactive). For the same compound, the GI50 (NCI/ADR-RES) was > 750 µM (inactive), the GI50 (SF-268) was > 750 µM (inactive) and the GI50 (U-251) was > 750 µM (inactive). The GI50 (XF498) was > 750 µM (inactive).
In the case of `S=c1c2nc[nH]c2ncn1CCSC1=NC=NC2=NC=NC21` (centres undefined), the GI50 (786-0) is reported as 71 µM (inactive), the GI50 (A498) is reported as > 100 µM (inactive) and the GI50 (BT-549) is reported as > 100 µM (inactive). The GI50 (DMS-273) was 64.4 µM (inactive), the GI50 (DU-145) was 78.3 µM (inactive) and the GI50 (HOP-18) was > 100 µM (inactive). For the same compound, the GI50 (HOP-62) was 66.1 µM (inactive), the GI50 (HT-29) was > 100 µM (inactive) and the GI50 (KM-20L2) was > 100 µM (inactive). For the same compound, the GI50 (M19-MEL) was > 100 µM (inactive), the GI50 (MDA-MB-435) was 53.5 µM (inactive) and the GI50 (NCI-H460) was > 100 µM (inactive). For the same compound, the GI50 (NCI-H522) was > 73.6 µM (inactive), the GI50 (NCI/ADR-RES) was > 100 µM (inactive) and the GI50 (PC-3) was > 100 µM (inactive). For the same compound, the GI50 (SF-268) was > 100 µM (inactive), the GI50 (SR) was 50.1 µM (inactive) and the GI50 (T47D) was > 94.2 µM (inactive). For the same compound, the GI50 (U-251) was > 100 µM (inactive) and the GI50 (XF498) was > 100 µM (inactive).
For `CC1(O)C=CC(=O)C=C1`, the GI50 (786-0) was 20.7 µM (inactive), the GI50 (A498) was 37.6 µM (inactive) and the GI50 (DMS-273) was 18.3 µM (inactive). The GI50 (HOP-18) was 58.2 µM (inactive), the GI50 (HOP-62) was > 52.6 µM (inactive) and the GI50 (HT-29) was 38.4 µM (inactive). The GI50 (KM-20L2) was 32 µM (inactive), the GI50 (M19-MEL) was 22.6 µM (inactive) and the GI50 (NCI-H460) was 20.3 µM (inactive). For the same compound, the GI50 (NCI-H522) was 18.6 µM (inactive), the GI50 (SF-268) was 13.9 µM (inactive) and the GI50 (SR) was 16.2 µM (inactive). The GI50 (U-251) was 21.9 µM (inactive) and the GI50 (XF498) was 29.1 µM (inactive).
With `COc1cc(/C=C/C(=O)O)ccc1C(=O)OCc1ccccc1` the GI50 (A498) was > 100 µM (inactive), the GI50 (DMS-273) was > 100 µM (inactive) and the GI50 (HOP-18) was > 100 µM (inactive). For the same compound, the GI50 (HOP-62) was > 100 µM (inactive), the GI50 (HT-29) was > 100 µM (inactive) and the GI50 (KM-20L2) was > 100 µM (inactive). For the same compound, the GI50 (M19-MEL) was > 100 µM (inactive), the GI50 (NCI-H460) was > 100 µM (inactive) and the GI50 (NCI-H522) was > 100 µM (inactive). For the same compound, the GI50 (NCI/ADR-RES) was > 100 µM (inactive), the GI50 (SF-268) was > 100 µM (inactive) and the GI50 (U-251) was > 100 µM (inactive). For the same compound, the GI50 (XF498) was > 100 µM (inactive).
In the case of `CN(C)CCNC(=O)c1cccc2cc3cc(O)ccc3nc12`, the GI50 (A498) is reported as 0.782 µM (active), the GI50 (DMS-273) is reported as 0.662 µM (active) and the GI50 (HOP-18) is reported as 1.32 µM (inactive). For the same compound, the GI50 (HOP-62) was 1.06 µM (active), the GI50 (HT-29) was 1.02 µM (active) and the GI50 (KM-20L2) was 2.44 µM (inactive). For the same compound, the GI50 (M19-MEL) was 1.2 µM (inactive), the GI50 (NCI-H460) was 0.361 µM (active) and the GI50 (NCI/ADR-RES) was 1.48 µM (inactive). For the same compound, the GI50 (SF-268) was 1.48 µM (inactive), the GI50 (U-251) was 1.36 µM (inactive) and the GI50 (XF498) was 0.916 µM (active).
With `Nc1cc(O)c2cc(/N=N/c3ccc(/N=N/c4ccc(/N=N/c5ccc6cc(S(=O)(=O)O)cc(S(=O)(=O)O)c6c5)c5ccccc45)c4cc(S(=O)(=O)O)ccc34)c(S(=O)(=O)O)cc2c1` the GI50 (A498) was > 100 µM (inactive), the GI50 (DMS-273) was 97.1 µM (inactive) and the GI50 (HOP-18) was > 100 µM (inactive). For the same compound, the GI50 (HOP-62) was > 100 µM (inactive), the GI50 (HT-29) was > 90.2 µM (inactive) and the GI50 (KM-20L2) was > 10 µM (inactive). The GI50 (M19-MEL) was > 100 µM (inactive), the GI50 (NCI-H460) was > 100 µM (inactive) and the GI50 (NCI-H522) was 98.6 µM (inactive). The GI50 (NCI/ADR-RES) was > 100 µM (inactive), the GI50 (SF-268) was > 100 µM (inactive) and the GI50 (U-251) was > 100 µM (inactive). The GI50 (XF498) was > 100 µM (inactive).
In the case of `COC1O[C@H]2CCN(C(=O)OCc3ccccc3)[C@H]2[C@H]1OCc1ccccc1` (some centres undefined), the GI50 (786-0) is reported as > 100 µM (inactive), the GI50 (A498) is reported as > 100 µM (inactive) and the GI50 (DMS-273) is reported as 39.1 µM (inactive). For the same compound, the GI50 (HOP-18) was > 100 µM (inactive), the GI50 (HOP-62) was > 100 µM (inactive) and the GI50 (HT-29) was 40.9 µM (inactive). For the same compound, the GI50 (KM-20L2) was 69.2 µM (inactive), the GI50 (M19-MEL) was 53 µM (inactive) and the GI50 (NCI-H460) was 44.3 µM (inactive). The GI50 (NCI-H522) was 37.6 µM (inactive), the GI50 (SF-268) was 50.2 µM (inactive) and the GI50 (SR) was 30.3 µM (inactive). The GI50 (U-251) was 45.9 µM (inactive) and the GI50 (XF498) was 35.2 µM (inactive).
